Experimental data from patent US20220184056A1, “USE OF KDM5A GENE AND ATRX GENE” (SHENZHEN CHIPSCREEN BIOSCIENCES, CO., LTD., priority 2019, published 2022).
“And” between values parts separate entries of the source, which are not always exact repeats. Identical values can stand only once.

Experiments:
[1] = test system: relapsed and refractory small cell lung cancer; test: Phase Ib clinical trial of Chiauranib monotherapy for relapsed and refractory small cell lung cancer, with ctDNA biomarker study (KDM5A, ATRX); format: in vivo, human
Method: According to the present invention, a phase Ib clinical trial of using Chiauranib capsules to treat relapsed and refractory small cell lung cancer was carried out, and a concomitant study of efficacy-related biomarkers for 548 tumor-related genes was carried out by detecting and analyzing plasma free tumor DNA (ctDNA). Blood samples were taken from all patients before enrollment, and gene sequences of tumor-related genes were detected, including gene mutations and copy number abnormalities. According to detection results, genes with mutation rates of more than 0.4% were all selected, and progression free survival (PFS) and objective response rates (ORR) of patients were taken as efficacy indicators to analyze the correlation between tumor-related gene abnormalities and the efficacy of Chiauranib.
Test drug: Chiauranib capsules, with specifications of 5 mg and 25 mg. They were manufactured by Shenzhen Chipscreen Biosciences Co., Ltd.
Dosing regimen: the Chiauranib capsules were administered QD at 50 mg/day (not adjusted according to the body weight or the body surface area). The capsules were taken on an empty stomach every morning with water, and the whole capsules were swallowed completely. Continuous administration for 28 days was one treatment cycle, and there was no interval during each treatment cycle.
Number of cases: 25 patients were enrolled.
The test subjects took 50 mg of Chiauranib capsules orally once daily, every 28 days was taken as one treatment cycle, and there was no withdrawal interval during the treatment cycles. All subjects received continuous treatment throughout the trial period until any one of the following occurred (whichever occurred first): progressed disease, intolerable toxicity, death, withdrawal of the informed consent, or loss to follow-up.
Efficacy evaluation: according to the RECIST 1.1 criteria, evaluations were respectively performed in the baseline period and at the end of the 4th week after treatment, and repeated every 8 weeks until a progressive disease occurred. Tumor imageological examinations included CT or MRI of neck, chest, whole abdomen, and pelvic cavity. Other site examinations should be performed as necessary according to clinical indications. The same technologies and methods should be used for baseline of lesions and subsequent evaluation and measurement.
10 mL of peripheral blood was taken before the subjects took Chiauranib for the first time and when a progressive disease occurred, gene sequences of plasma free tumor DNA (ctDNA) and leukocyte extracted DNA (control) were detected, a total of 548 tumor-related genes were included, and detection results included gene mutations and copy number abnormalities, as well as analysis of tumor mutation burden (TMB).
Plasma free tumor DNA (ctDNA) of the evaluated patients was detected and analyzed, and a concomitant study of efficacy-related biomarkers for the 548 tumor-related genes was carried out. According to detection results, genes with mutation rates of more than 0.4% were all selected, and progression free survival (PFS) and objective response (PR) of the patients were taken as efficacy indicators to analyze the correlation between tumor-related gene abnormalities and the efficacy of Chiauranib.

SCLC = settings: topotecan combined optimal supportive treatment vs optimal supportive treatment alone; cited from earlier work

With `COc1ccc2c(Oc3ccc4c(C(=O)Nc5ccccc5N)cccc4c3)ccnc2c1` [Chiauranib, N-(2-aminophenyl)-6-(7-methoxyquinolin-4-oxy)-1-naphthamide] as the compound, how does the “efficacy of monotherapy in the treatment of small cell lung cancer” value ([1]; 50 mg QD oral) read?
Its value is “effective”.

What about the benefit rate ([1]; 20 evaluated patients, 50 mg QD oral) of the same compound?
Its benefit rate is 60%.

What about the ORR ([1]; 20 evaluated patients, 50 mg QD oral, RECIST 1.1) of the same compound?
The ORR was 20%.

What about the “Non-response (SD + PD), number of patients” value ([1]; ATRX mutation (6 patients)) of the same compound?
The value was 2 patients.

And the “Non-response (SD + PD), share of patients” value ([1]; ATRX mutation (6 patients))?
The value was 33.3%.

And the “Objective response (PR), number of patients” value ([1]; ATRX mutation (6 patients))?
Its value is 4 patients.

And the “Objective response (PR), share of patients” value ([1]; ATRX mutation (6 patients))?
The value was 66.7%.

What about the “Non-response (SD + PD), number of patients” value ([1]; ATRX wild type (14 patients)) of the same compound?
The value was 14 patients.

And the “Non-response (SD + PD), share of patients” value ([1]; ATRX wild type (14 patients))?
The value was 100.0%.

What about the “Objective response (PR), number of patients” value ([1]; ATRX wild type (14 patients)) of the same compound?
Its value is 0 patients.

What about the “Objective response (PR), share of patients” value ([1]; ATRX wild type (14 patients)) of the same compound?
Its value is 0%.

What about the “PFS Hazard ratio (HR)” value ([1]; KDM5A wild type vs mutation, P value 0.0087) of the same compound?
Its value is 16.5 (2.03, 133.37).

What about the “patients with best efficacy evaluation being partial response (PR)” value ([1]; among 20 evaluated patients) of the same compound?
Its value is 4 patients.

And the “PFS, Median (95% CI)” value ([1]; patients with KDM5A gene mutation (n = 8))?
The value was 145 days and 145.0 (23.0, 145.0) days.

What about the “PFS, Median (95% CI)” value ([1]; patients with wild-type KDM5A gene (n = 12)) of the same compound?
Its value is 27.5 days and 27.5 (16.0, 61.0) days.

Which “Overall survival, quality of life, improvement of symptoms” value (SCLC) does the source give for `CC[C@@]1(O)C(=O)OCc2c1cc1n(c2=O)Cc2cc3c(CN(C)C)c(O)ccc3nc2-1` [topotecan] here?
The value was “significantly better”.
